# Reference: PubChem BioAssay (NCI)
#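 Briefly, cells in 96-well plates were exposed to five compound concentrations for 48 h, and endpoints were estimated by linear interpolation. TGI denotes the concentration required for complete inhibition of growth.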
# Tests used:
# Experiment in all cases: NCI anticancer screen, dose series, 48 h
# [1] = system: MALME-3M melanoma
# [2] = system: NCI-H23 lung
# [3] = system: UO-31 renal
# [4] = system: SNB-19 CNS
# [5] = system: OVCAR-3 ovarian
# [6] = system: CAKI-1 renal
# [7] = system: HT29 colon
# [8] = system: EKVX NSCLC
# [9] = system: A549 NSCLC
# [10] = system: HCT-116 colon
# [11] = system: SF-295 CNS
# [12] = system: UACC-257 melanoma
# [13] = system: OVCAR-5 ovarian
# [14] = system: HOP-92 NSCLC
# [15] = system: HCC-2998 colon
# [16] = system: OVCAR-4 ovarian
# [17] = system: MCF7 breast
# [18] = system: HS 578T breast
# [19] = system: NCI/ADR-RES ovarian
SMILES,TGI [1] [µM],TGI [2] [µM],TGI [3] [µM],TGI [4] [µM],TGI [5] [µM],TGI [6] [µM],TGI [7] [µM],TGI [8] [µM],TGI [9] [µM],TGI [10] [µM],TGI [11] [µM],TGI [12] [µM],TGI [13] [µM],TGI [14] [µM],TGI [15] [µM],TGI [16] [µM],TGI [17] [µM],TGI [18] [µM],TGI [19] [µM]
O=C1Cc2nc(CO)c(CO)c(CO)c2CO1,> 100,> 100,> 100,> 100,> 100,> 100,> 100,> 100,> 100,> 100,> 100,> 100,> 100,> 100,> 100,,,,
COc1ccc(C(=O)c2c3cc(OC)c(OC)c(OC)c3cc[n+]2C)cc1,> 100,66.5,> 100,> 100,,,> 100,> 100,34.7,> 100,,,> 100,,98.8,,,,
CC(=O)OCCOCNC(=S)N/N=C/c1cc([N+](=O)[O-])ccc1O,> 100,> 100,> 100,> 100,> 100,,> 100,> 100,> 100,> 100,> 100,> 100,> 100,> 100,> 100,> 100,,,
CCOc1cn(C2OC(CO)C(O)C2O)c(=O)[nH]c1=O (centres undefined),> 100,> 100,> 100,> 100,> 100,> 100,> 100,> 100,> 100,> 100,> 100,> 100,> 100,> 100,> 100,,,,
COC(=O)[C@@]1(C)C(=O)CC[C@@H]1C=O,> 100,> 100,> 100,> 100,> 100,> 100,> 100,> 100,> 100,> 100,> 100,> 100,> 100,,,> 100,,,
CCOC(=O)C1=C(C)NC2=C(C(=O)N(c3ccccc3)C2c2ccccc2)C1c1ccccc1 (centres undefined),33.7,33.7,39.1,,25.4,31.6,37.2,44.2,44.2,31.4,,40.2,29.8,25.8,31.7,,,,
O=C(Cc1ccccc1)NN1C(=O)/C(=C\c2cccc([N+](=O)[O-])c2)SC1=Nc1ccccc1,,> 100,> 100,> 100,> 100,,> 100,> 100,> 100,> 100,> 100,> 100,> 100,> 100,> 100,> 100,> 100,> 100,> 100
CC(=O)Nc1ccc(-c2nnc(SCC(=O)Nc3cccc(Cl)c3)o2)cc1,26.8,23,76.9,39.4,22.1,33.2,31,45,33.1,25.5,33.6,43.6,40.3,,37.6,42.3,,,
